Like-named read-outs stand apart in the source and are kept apart here.
How the values were obtained:
[1] = test system: A(H3N2) virus neuraminidase (NA); assay type: biochemical, influenza A(H3N2) virus
[2] = test system: uncomplicated influenza; set-up: method as in Hayden, 2018; conditions: phase III, given <48 h after onset of symptoms; ref Hayden, 2018; cited from earlier work
[3] = test system: B/Victoria-lineage virus neuraminidase (NA); conditions: cited from earlier work
[4] = test system: influenza; set-up: method as in Rossignol, 2018; conditions: vs placebo, twice daily for 5 days, subjects enrolled within 36 h of symptom onset and followed up daily; ref Rossignol, 2018; cited from earlier work
[5] = test system: B/Yamagata-lineage virus neuraminidase (NA); set-up: method as in Gubareva et al., 2017a; Monto et al., 2006; conditions: ref Gubareva et al., 2017a, Monto et al., 2006, cited from earlier work
[6] = test system: uncomplicated influenza; conditions: phase III, ref Epstein, 2017; cited from earlier work
[7] = test system: influenza; set-up: method as in Haffizula et al., 2014; conditions: 600 mg twice daily for five days, ref Haffizula et al., 2014, cited from earlier work
[8] = frequency of reported adverse events similar to placebo; cited from earlier work
[9] = B/Victoria-lineage NA A245T, ref Leang et al., 2014
[10] = B/Victoria-lineage NA D197N, ref Gubareva et al., 1998, 2017b, Ison et al., 2006, Mishin et al., 2005

## [H]/N=C(\N)N[C@H]1C=C(C(=O)O)O[C@@H]([C@H](OC)[C@H](O)CO)[C@@H]1NC(C)=O [Laninamivir]
[1]
  IC50 fold-change compared to reference median IC50 values: 17 fold

## O=C1c2c(O)c(=O)ccn2N([C@@H]2c3ccccc3SCc3c2ccc(F)c3F)[C@@H]2COCCN12 [baloxavir, Baloxavir]
[2]
  alleviation of symptoms faster than placebo: 26.5 h

## CC(=O)N[C@H]1[C@H]([C@H](O)[C@H](O)CO)OC(C(=O)O)=C[C@@H]1N=C(N)N [Zanamivir]
[3]; [9]
  inhibition phenotype associated with NA AAS (NI/RI/HRI): RI (type B viruses 5- to 50-fold)
[3]; [10]
  inhibition phenotype associated with NA AAS (NI/RI/HRI): RI (type B viruses 5- to 50-fold)

## CCOC(=O)C1=C[C@@H](OC(CC)CC)[C@H](NC(C)=O)[C@@H](N)C1 [Oseltamivir]
[4]
  improvement in median time to alleviation of symptoms: 50 h
[3]; [9]
  inhibition phenotype associated with NA AAS (NI/RI/HRI): RI (type B viruses 5- to 50-fold)
[3]; [10]
  inhibition phenotype associated with NA AAS (NI/RI/HRI): RI (type B viruses 5- to 50-fold)
[5]; B/Yamagata-lineage NA I221T
  fold increase in IC50: greater than 5 fold

## NC(=O)c1nc(F)c[nH]c1=O [favipiravir, Favipiravir]
[6]
  reduction of median time to alleviation of symptoms compared to placebo: 6 to 14 h

## CC(=O)Oc1ccccc1C(=O)Nc1ncc([N+](=O)[O-])s1 [nitazoxanide, Nitazoxanide]
[4]
  improvement in median time to alleviation of symptoms: 50 h
[7]; enrolled within 48 h of symptom onset, p = 0.0084
  median improvement in alleviation of influenza symptoms: 22 h
[7]; p = 0.0006
  virus shedding: significant reduction
[8]
  tolerability, adverse events: well tolerated

## CCC(CC)[C@H](NC(C)=O)[C@@H]1[C@H](O)[C@@H](C(=O)O)C[C@H]1N=C(N)N [Peramivir]
[1]
  IC50 fold-change compared to reference median IC50 values: 5.3 fold
  inhibition phenotype (NI/RI/HRI): NI (key: normal inhibition (NI) (type A viruses <10-fold; reduced inhibition (RI) (type A viruses 10- to 100-fold; highly reduced inhibition (HRI) (type A viruses >100-fold)
[3]; [9]
  inhibition phenotype associated with NA AAS (NI/RI/HRI): RI (type B viruses 5- to 50-fold)
[3]; [10]
  inhibition phenotype associated with NA AAS (NI/RI/HRI): RI (type B viruses 5- to 50-fold)
[3]; B/Victoria-lineage NA K360E, D432G or H273Y, ref WHO-AVWG NAI substitution table
  inhibition phenotype associated with NA AAS (NI/RI/HRI): RI (type B viruses 5- to 50-fold)
[5]; B/Yamagata-lineage NA I221V and I221T
  inhibition phenotype associated with NA AAS (NI/RI/HRI): RI (type B viruses 5- to 50-fold)
